# Results taken from US11491147B2, “Combination drug therapy reduces PARP-1 related DNA repair and increases the efficacy of genotoxic agents” (Indiana University Research and Technology Corporation, priority 2016, dated 2022).
# What was measured:
# TE activity of FASN = biological target: T1, TE activity of FASN (Homo sapiens, UniProt P49327); assay: TE activity assay using recombinant TE; type: biochemical
# T1 construct: TE activity assay was performed also as previously described using recombinant TE (Fako et al., 2015)
# γ-H2AX in MCF7 cells = assay: Western blot of γ-H2AX, MCF7 cells; type: cell-based, human; settings: lansoprazole alone
# Experimental: (§1) Furthermore, the lansoprazole-induced γ-H2AX increase in MCF7 cells was ablated by over-expressing ectopic FASN (FIG. 18G).
# (§2) Cells were harvest and then lysed in TNN buffer with 1 mM DTT, 1 mM PMSF and 0.1% SDS for 30 min at 4° C. with occasional agitation. The cells were sonicated briefly and total proteins were harvested after centrifugation of the lysate at 16,000 g for 15 minutes at to remove cell debris. The protein concentration of cell lysates was determined using a Bio-Rad protein assay kit. Total cell lysates were then separated by SDS-PAGE, transferred to a polyvinylidene fluoride membrane, and probed using antibodies against fatty acid synthase (610963, BD biosciences), PARP-1 (46D11, CST), γ-H2AX (05-636, Millipore), and (3-Actin (A2228, Sigma). The blot was then probed with horseradish peroxidase-conjugated secondary antibodies (Sigma) and signals were captured on X-ray films following developing with Amersham ECL Western Blotting Detection Reagent (RPN2106, GE).
# MDA-MB-231 cells = assay: Colony formation survival assay, MDA-MB-231 cells; type: cell-based; settings: Homo sapiens, single agent, read-out: IC50, cell survival
# MCF7 cells [1] = assay: Colony formation survival assay, MCF7 cells; type: cell-based, human; settings: MCF7 cells; for IC50: Homo sapiens, single agent, colony formation, read-out: IC50, cell survival
# Experimental: FIG. 15. […] B. Combination index. Combination index (CI) was derived using the data shown in A and the formula: […]
# (§3) For each potency ratio, combination index of three effective concentrations at IC30, IC50, and IC70 were calculated for synergistic effects using Prism 7.0.
# (§4) Cells were then harvested and re-plated in 6-well plates at a density of 200 cells/well followed by IR treatment at different doses and colony formation assay or collection of cells for Western blot analysis. Concentration-response curves and IC50 values were calculated using Prism 7.0 (GraphPad, La Jolla, USA).
# breast cancer patients = assay: Retrospective survival analysis of electronic medical records of breast cancer patients; type: in vivo, human
# Experimental: FIG. 16. Retrospective survival analysis of breast cancer patients with or without use of proton pump inhibitors (PPIs). De-identified electronic medical records of 6,752 breast cancer patients were retrieved from the database of Indiana Network for Patient Care (INPC) and subjected to Kaplan-Meier survival analysis in association with PPI usage in all patients (A) or in triple negative breast cancer patient subgroup (B). The p-value and hazard ratio (HR) were calculated from Cox proportional hazard models, which were adjusted for age, tumor stage, and time of first diagnosis.
# Because PPIs are widely used for treatment of a variety of acid-related digestive disorders, many cancer patients may use PPIs without the knowledge that the combination of PPIs with their chemotherapy may have helped them. To this end, a retrospective association analysis was conducted using de-identified electronic medical records (EMR) of 6,752 breast cancer patients from Indiana Network for Patient Care (INPC). The average age at diagnosis is 58.9 years (range 19-102) and average age at death or last visit is 61.5 (range 21-104). Of this cohort, 534 patients took one or more PPIs after diagnosis as recorded in the EMR. There are 488 triple negative breast cancer (TNBC) patients, among them 35 used PPIs. Using the Cox proportional hazard regression model, the patient overall survival was analyzed against PPI usage. […] The protective effect of PPIs on patient survival was adjusted for age, tumor stage, and time of first diagnosis.
# The patient database contains three domains of electronic medical records (EMR) of 6,752 de-identified breast cancer patients from Indiana Network for Patient Care (INPC). The first domain contains patient characteristics as shown in Supplemental Table 51. The second domain contains medical test results including body weight, blood tests, and office visit information. The third domain contains prescription information for each patient. The use of this database has been approved by IRB at Indiana University for this study.
# The first task is to remove null and duplicated values and to resolve contradicting records. For patients that have contradicting records, different rules for different conflicts were followed. For conflicts on the first visit or diagnosis time, the earlier record at younger age were used as the first diagnosis and considered the later one as system update. For all other information including diagnosis information such as cancer subtype, the latest record was used as it is thought to be more accurate.
# Next, the plain text information from the first domain of the database including but not limited to ER, PR, and HER2 test results, treatment plans, and therapy types were digitized. The record that is not clear was marked as unknown. For example, the HER2 status with a 2+ score, a borderline score, from IHC staining was usually confirmed with FISH test. Patients with a 2+ score but without a FISH test result were considered unknown in this study.
# Further, the days of patient survival from data in the first domain were validated using prescription history of the same patient in the third domain of the database. When there is a conflict, the last day of office visit or prescription refill, whichever is later, was recorded as the last day of visit or death. Moreover, patients who took PPIs prior to their diagnosis of breast cancer but stopped taking them after diagnosis were considered non-PPI users in this study.
# [2] = system: NHEJ activity in MDA-MB-468 cells; assay: Host cell reactivation NHEJ assay, MDA-MB-468 cells; type: cell-based, human; settings: 10 μM, three days
# Experimental: (§5) The host cell reactivation NHEJ assay was carried out as previously described (Wu et al., 2017) with minor modifications. Briefly, 1×10^4 cells were seeded in 24-well plates, cultured overnight and then treated with 10 μM Lansoprzole or vehicle every day for three days before transfection with either linearized or intact pGL3-luc firefly luciferase plasmids (400 ng) using Lipofectamine 2000 (Invitrogen). pGL3-luc plasmid was linearized by HindIII digestion, and linearization was verified by DNA agarose gel electrophoresis before transfection. pRL-TK (Promega) plasmid which encodes renilla luciferase was co-transfected (400 ng) as a control for transfection efficiency. 8 hours after transfection, cells were harvested and assayed for luciferase activity with Dual Luciferase Assay (Promega) on a luminometer. Firefly luciferase signal were normalized to renilla luciferase signal in each group. Overall NHEJ activity was calculated by firefly luciferase activity from cells transfected with linearized plasmid relative to that of the intact plasmid.
# [3] = system: NHEJ activity in MCF7 cells; assay: Host cell reactivation NHEJ assay, MCF7 cells; type: cell-based, human; settings: 10 μM, three days
# Experimental: as §5
# [4] = system: MCF7, T47D, MDA-MB-231, and MDA-MB-468 cells; assay: Colony formation survival assay, four breast cancer cell lines
# Experimental: Next, tested whether PPIs inhibit survival of breast cancer cell lines with different levels of FASN expression (FIG. 17B) using colony formation assay.
# Briefly, breast cancer cells were seeded in six-well plates at 200 cells/well and cultured overnight followed by treatments without or with PPIs at different concentrations for 14 days. The colonies formed were then washed with PBS, fixed in 100% methanol and stained with 0.5% crystal violet in 25% methanol. The stained colonies were counted manually and concentration-response curves with IC50 were generated using Prism 7.0 (GraphPad, La Jolla, USA).
# MDA-MB-468 cells [5] = assay: Colony formation survival assay, MDA-MB-468 cells; type: cell-based, human; settings: pre-treated with 10 μM lansoprazole for 3 days
# Experimental: as §3, §4
# MCF7 cells [6] = assay: Apoptosis and cell cycle distribution, MCF7 cells; type: cell-based, human
# Experimental: (§6) Cancer cells were plated in 6-well plates at a density of 2×10^5 cells/well, cultured overnight. […] Cells were washed with PBS and fixed ice cold 70% ethanol overnight. After centrifugation, pellets were resuspended in PBS, stained with propidium iodide solution for 30 min in the dark and analyzed by flow cytometry.
# MDA-MB-468 cells [7] = assay: Apoptosis and cell cycle distribution, MDA-MB-468 cells; type: cell-based, human
# Experimental: as §6
# PARP1 expression = assay: Western blot of PARP1 expression in 4 breast cancer cell lines; type: cell-based, human; settings: lansoprazole at different concentrations, all 4 cell lines
# Text: FIG. 18. Role of FASN in mediating PPI effect. A, Western blot analysis of FASN and PARP1 expression in MCF7 cells with ectopic FASN over-expression and in drug resistant MCF7/AdVp3000 (M3K) cells with FASN knockdown. […] E, Rescue of lansoprazole-induced reduction in NHEJ activity by ectopic FASN over-expression. […] G, Ablation of lansoprazole-induced γH2AX level increase by ectopic FASN over-expression as determined using Western blot analysis. Actin was used as loading control for all Western blot analyses.
# FASN can regulate NHEJ repair activity by regulating PARP1 expression (Wu et al., 2017).
# Cells were harvest and then lysed in TNN buffer with 1 mM DTT, 1 mM PMSF and 0.1% SDS for 30 min at 4° C. with occasional agitation. The cells were sonicated briefly and total proteins were harvested after centrifugation of the lysate at 16,000 g for 15 minutes at to remove cell debris. The protein concentration of cell lysates was determined using a Bio-Rad protein assay kit. […]
# [8] = system: γ-H2AX in MDA-MB-468 cells; assay: Western blot of γ-H2AX, MDA-MB-468 cells; type: cell-based, human; settings: lansoprazole alone
# Experimental: as §1, §2
# M/FASN cells = assay: MTT survival assay, M/FASN cells; type: cell-based, human
# Experimental: (§7) FIG. 5. PARP-1 mediates FASN-associated DNA repair and genotoxic treatment resistance. A-B, Effect of FASN on PARP-1 expression as determined by Western blot (A) and real-time RT-PCR (B) in stable FASN-over-expressing and -knockdown cells. C, Effect of FASN on IR-induced histone-H3 PARylation. Cells were pre-treated without or with 0.5 μM olaparib followed by treatment with or without IR and harvested at different times following IR for lysate preparation, immunoprecipitation of histone-H3 in the presence of 100 μM PARG inhibitor, gallotannin, and Western blot analyses of PARylated and total histone H3. D, Effect of PARP-1 knockdown on FASN-induced NHEJ up-regulation. FASN-over-expressing (P/FASN) and the control (P/Vec) cells were transiently transected with PARP-1 or scrambled control siRNA followed by Western blot analysis of PARP-1 (left panel) and NHEJ activity assay (right panel) (n=3, *p<0.05; **p<0.01). E, Effect of PARP-1 inhibition on survival. M/FASN cells were treated with 1 mM 3-ABA, 0.5 μM olaparib, or their vehicle control for 48 hours followed by MTT assay. F, Effect of PARP-1 inhibition on doxorubicin resistance. M/FASN cells were pre-treated for 6 hours by 1 mM 3-ABA, 0.5 μM olaparib, or transfected with control or PARP-1 siRNA followed by tested doxorubicin resistance using MTT survival assay. (n=3-4, *p<0.05, **p<0.01).
# To determine if FASN enhancement of PARP-1 likely mediates FASN function in cellular resistance to DNA damages, a survival assay of […] cells following doxorubicin treatment in the absence or presence of PARP-1 inhibitors, 3-ABA (3-aminobenzamide) or olaparib was carried out. Now referring to FIG. 5E, either 1 mM 3-ABA or 0.5 μM olaparib alone had no effect on M/FASN cell survival.
# MTT survival assay was performed as previously described (see e.g., Yang Y, Chen Q, & Zhang J T (2002) Structural and functional consequences of mutating cysteine residues in the amino terminus of human multidrug resistance-associated protein 1. J. Biol. Chem. 277(46):44268-44277). Briefly, cells in 96-well plate were cultured for 24 hours and treated with various concentrations of doxorubicin, bleomycin, cisplatin or H2O2 continuously for 3 days followed by addition of thiazolyl blue tetrazolium bromide (MTT) to a final concentration of 0.5 mg/mL and incubation at 37° C. for 4 hours. Medium was then removed and formazan was solubilized in dimethyl sulfoxide and the OD570 was measured by a Synergy H1 hybrid reader (BioTek, Winooski, Vt.). IC50's were obtained from the fitted curves generated by GraphPad Prism 5.0 program (GraphPad Software, Inc.). Relative resistance factor (RRF) is calculated using the formula RRF=IC50 (test)/IC50 (control) with control normalized as 1. […]
# PARylated histone-H3 = assay: IR-induced histone-H3 PARylation, immunoprecipitation and Western blot; type: cell-based, human; settings: pre-treatment with 0.5 μM olaparib, 5 Gy IR, P/FASN and P/Vec cells
# Experimental: as §7, with “*p<0.05, **p<0.01). […]” for “*p<0.05, **p<0.01).”
# T1 sequence (P49327 2207-2511 limits assumed): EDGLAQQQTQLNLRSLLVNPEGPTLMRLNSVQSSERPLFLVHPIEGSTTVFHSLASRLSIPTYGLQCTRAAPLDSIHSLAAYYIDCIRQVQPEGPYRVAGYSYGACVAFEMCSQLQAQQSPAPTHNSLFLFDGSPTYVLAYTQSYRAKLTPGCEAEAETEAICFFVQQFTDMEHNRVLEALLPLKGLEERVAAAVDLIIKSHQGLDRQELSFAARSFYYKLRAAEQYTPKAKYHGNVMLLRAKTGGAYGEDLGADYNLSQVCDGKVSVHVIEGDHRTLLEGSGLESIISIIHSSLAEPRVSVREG
smiles,measurement,setting,value
Cc1c(OCC(F)(F)F)ccnc1C[S@@+]([O-])c1nc2ccccc2[nH]1 [R-lansoprazole],"inhibition of TE (Ki), R- versus S-enantiomer",TE activity of FASN,significantly more effective than the S-lansoprazole
Cc1c(OCC(F)(F)F)ccnc1C[S+]([O-])c1nc2ccccc2[nH]1 (stereo not shown) [lansoprazole],level of γ-H2AX,γ-H2AX in MCF7 cells,increased the level of γ-H2AX in a dose-dependent manner
same,IC50,MDA-MB-231 cells,21.4 ± 4.1 µM
same,IC50,MCF7 cells [1],1.3 ± 0.7 µM
same,sensitization to IR treatment,MCF7 cells [1]; pre-treated with 10 μM lansoprazole for 3 days,sensitized
same,"HR (CoxPH ratio), overall survival","breast cancer patients; pairwise versus Omeprazole users, all patients",0.68
same,"HR (CoxPH ratio), overall survival","breast cancer patients; single-PPI users versus No PPI, all breast cancer patients",0.17
same,"HR, overall survival","breast cancer patients; versus No PPI, African American (AA) patients",1.09*10^−7
same,"HR, overall survival","breast cancer patients; versus No PPI, Caucasian (CA) patients",0.18
same,"HR, overall survival","breast cancer patients; versus Omeprazole, AA patients",3.99*10^−9
same,"HR, overall survival","breast cancer patients; versus Omeprazole, CA patients",0.81
same,NHEJ activity,[2],significantly reduced
same,NHEJ activity,[3],significantly reduced
same,"inhibition of breast cancer cell survival, comparison among PPIs",[4],the most effective one for all 4 cell lines
same,sensitization to IR treatment,MDA-MB-468 cells [5],sensitized
same,apoptosis,MCF7 cells [6],dose-dependently induced apoptosis
same,cell cycle distribution,MCF7 cells [6],cell cycle arrest at G1
same,apoptosis,MDA-MB-468 cells [7],dose-dependently induced apoptosis
same,cell cycle distribution,MDA-MB-468 cells [7],S phase
same,PARP1 expression,PARP1 expression,dose-dependently reduced
same,level of γ-H2AX,[8],increased the level of γ-H2AX in a dose-dependent manner
O=C(c1cc(Cc2n[nH]c(=O)c3ccccc23)ccc1F)N1CCN(C(=O)C2CC2)CC1 [olaparib],IC50,MCF7 cells [1],1 µM
same,effect on M/FASN cell survival,"M/FASN cells; 1 mM 3-ABA or 0.5 μM olaparib alone, 48 hours",no effect
same,doxorubicin resistance level of M/FASN cells,M/FASN cells; pre-treated for 6 hours by 1 mM 3-ABA or 0.5 μM olaparib,significantly reduced
same,IR-induced PARylation of histone-H3,PARylated histone-H3,inhibited IR-induced PARylation
